The record followed here is publication PMC9848300, “Discovery of novel enasidenib analogues targeting inhibition of mutant isocitrate dehydrogenase 2 as antileukaemic agents” (Journal of Enzyme Inhibition and Medicinal Chemistry, 2023).

Substitutions are numbered along the chain they refer to. “And” between values parts separate entries of the source, which are not always exact repeats. Identical values can stand only once.

For one experiment, the system named is HL-60(TB). The experiment can be described thus: NCI 60 antitumor screening (single dose / five doses). Type of experiment: cell-based. Particulars: Homo sapiens; for inhibition at 10 µM: HL-60(TB) (leukaemia), single dose 10 μM, read-out: Growth inhibition percentage (GI %); for GI50: HL-60(TB), five doses (0.01–100 μM), read-out: GI50.
Experiment [1] deals with 60 human subpanel cancer cell lines. The experiment can be described thus: NCI 60 antitumor screening, mean over the panel (single dose). It counts as cell-based. The settings on record: mean over 60 cancer cell lines, single dose 10 μM. As for the experimental part: Initially, the anticancer effects of target compounds have been assessed at a single (10 μM) dose. The obtained data have been reported as mean-graph of the percent growth (G%) of the treated cancer cells. Percentage growth inhibition (GI%) is calculated (100 − G%) and pronounced in Table 1. […] Target compounds in series (III) with manipulated linkers disclosed lower potency. Superiorly, eight s-triazine derivatives from the three series (6a, 6c, 6d, 7a, 7g, 7i, 7l, and 8b) have shown potent broad-spectrum anticancer activity against most the examined cell lines, whereas most of the remaining triazine derivatives, 20 derivatives, have exerted selective anti-proliferative actions towards certain cancer cell lines (Supplementary).
The antitumor screening was performed for 60 human cancer cell lines under the protocol of NCI (www.dtp.nci.nih.gov), the Drug Evaluation Branch, Bethesda, MD. All submitted compounds were nominated based on the degree of structural diversity and computer modelling techniques for evaluation of their anticancer activity. The screening process for antineoplastic activity passes through two successive levels, starting with the assessment of target compounds at a single dose of 10 μM against 60 cancer cell lines on nine types of human tumours. These experiments were done on a triplicate following. The output from the single‐dose screening was covered as a mean graph, and then, analysed by the COMPARE program. Finally, the compounds which disclosed subpanel cancer cell growth (G %) equal to or less than 10% in at least eight cancer cell lines get to pass the assessment against the 60 cell lines at five doses (0.01–100 μM). By using GraphPad Prism version 9.0 (Graphpad Software Inc., La Jolla, CA), GI50, TGI, as well as LC50 dose‐response parameters were computed and presented for each compound (Supplementary information)[55–57].

The next experiment has as its system HCT-15. The experiment can be described thus: NCI 60 antitumor screening (single dose / five doses). Type of experiment: cell-based. The settings on record: Homo sapiens; for inhibition at 10 µM: HCT-15 (colon cancer), single dose 10 μM, read-out: Growth inhibition percentage (GI %); for GI50: HCT-15, five doses (0.01–100 μM), read-out: GI50.
Another experiment deals with RXF 393. The experiment is described as above. Type of experiment: cell-based. Particulars: Homo sapiens; for inhibition at 10 µM: RXF 393 (renal cancer), single dose 10 μM, read-out: Growth inhibition percentage (GI %); for GI50: RXF 393, five doses (0.01–100 μM), read-out: GI50.
A further experiment has as its system RPMI-8226. Described as above. Type of experiment: cell-based. The settings on record: Homo sapiens; for inhibition at 10 µM: RPMI-8226 (leukaemia), single dose 10 μM, read-out: Growth inhibition percentage (GI %); for GI50: RPMI-8226, five doses (0.01–100 μM), read-out: GI50.
A further experiment concerns SF-295. Described as above. Type of experiment: cell-based. The settings on record: Homo sapiens; for inhibition at 10 µM: SF-295 (CNS cancer), single dose 10 μM, read-out: Growth inhibition percentage (GI %); for GI50: SF-295, five doses (0.01–100 μM), read-out: GI50.
The target of another experiment is T1, IDH2^R140Q (Homo sapiens, UniProt P48735, R140Q).
T1 sequence (P48735 40-452 R140Q): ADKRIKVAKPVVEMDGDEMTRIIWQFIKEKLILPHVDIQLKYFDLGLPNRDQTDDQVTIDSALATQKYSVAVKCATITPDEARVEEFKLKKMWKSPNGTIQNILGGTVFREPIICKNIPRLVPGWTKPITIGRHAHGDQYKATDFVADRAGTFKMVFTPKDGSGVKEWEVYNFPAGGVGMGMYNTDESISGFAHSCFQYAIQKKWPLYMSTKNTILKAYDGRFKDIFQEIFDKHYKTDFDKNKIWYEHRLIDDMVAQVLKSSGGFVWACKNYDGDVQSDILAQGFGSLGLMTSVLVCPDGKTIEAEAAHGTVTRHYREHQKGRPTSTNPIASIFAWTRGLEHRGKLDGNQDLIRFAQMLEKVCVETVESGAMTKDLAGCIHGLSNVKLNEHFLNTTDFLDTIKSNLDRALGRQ
The experiment can be described thus: biochemical.

A further experiment has as its target T2, wild type IDH2 (Homo sapiens, UniProt P48735).
T2 sequence (P48735 40-452): T1 sequence (P48735 40-452 R140Q) with Q101R
The experiment can be described thus: IDH2 enzyme inhibition assay (wild type IDH Assay Kit).

Turning to `Oc1ccccc1/C=N/Nc1nc(N/N=C/c2ccccc2O)nc(N2CCOCC2)n1` [compound 6a, 2-[(1e)-(2-{4-[(E)-2-[(2-Hydroxyphenyl)methylidene]hydrazin-1-yl]-6-(morpholin-4-yl)-1,3,5-triazin-2-yl}hydrazin-1-ylidene)methyl]phenol], the inhibition at 10 µM worked out at 96.3% in the experiment with HL-60(TB); 96.1% in the experiment on HCT-15; 101% with RXF 393; 46.4% in the experiment with RPMI-8226; 80.4% in the experiment on SF-295. The GI50 is 190 nM in the experiment with HL-60(TB); 240 nM in the experiment with HCT-15; 270 nM in the experiment with RXF 393; 2780 nM in the experiment with RPMI-8226; 7670 nM with SF-295. Besides, in experiment [1], the “Mean GI %” value was 66.07%. Besides, on IDH2^R140Q, the IC50 turned out to be 373 ± 18.2 nM.

Consider `Clc1cccc(/C=N/Nc2nc(N/N=C/c3cccc(Cl)c3)nc(N3CCOCC3)n2)c1` [compound 6d, 2,4-Bis[(E)-2-[(3-chlorophenyl)methylidene]hydrazin-1-yl]-6-(morpholin-4-yl)-1,3,5-triazine], for which the inhibition at 10 µM in the experiment with HL-60(TB) came out at 110%; with HCT-15, 111%; with RXF 393, 82.5%; in the experiment on RPMI-8226, 61.2%; with SF-295 it was 42.4%. Moreover, the GI50 with HL-60(TB) turned out to be 500 nM; with HCT-15 it was 910 nM; with RXF 393, 1000 nM; in the experiment with RPMI-8226, 1900 nM; in the experiment with SF-295, 4130 nM. Also, the “Mean GI %” value in experiment [1] was 53.70% and 53.69%. Further, the IC50 on IDH2^R140Q was 1870 ± 91.2 nM.

In the case of `Fc1cccc(/C=N/Nc2nc(N/N=C/c3cccc(F)c3)nc(N3CCOCC3)n2)c1` [compound 6e, 2,4-Bis[(E)-2-[(3-Fluorophenyl)methylidene]hydrazin-1-yl]-6-(morpholin-4-yl)-1,3,5-triazine], the inhibition at 10 µM in the experiment on HL-60(TB) is 50.9%; in the experiment with HCT-15, 52.5%; with RXF 393 it was 79.3%; in the experiment on RPMI-8226 it was 33%; in the experiment with SF-295, -8.45%. Moreover, the IC50 at wild type IDH2 stood at 2300 ± 90 nM; against IDH2^R140Q it was 67 ± 3.27 nM. Moreover, the “Mean GI %” value in experiment [1] turned out to be 15.60%.

With `CN(C)c1ccc(/C=N/Nc2nc(N/N=C/c3ccc(N(C)C)cc3)nc(N3CCOCC3)n2)cc1` [compound 6g, 4-[(1e)-(2-{4-[(E)-2-{[4-(dimethylamino)phenyl]methylidene}hydrazin-1-yl]-6-(morpholin-4-yl)-1,3,5-triazin-2-yl}hydrazin-1-ylidene)methyl]-N,N-dimethylaniline], the inhibition at 10 µM is 3.26% in the experiment on HL-60(TB); 77.6% in the experiment on HCT-15; 6.9% in the experiment with RXF 393; 65% with RPMI-8226; 86.2% with SF-295. Further, the “Mean GI %” value in experiment [1] was determined as 14.28%. This molecule displayed an IC50 against IDH2^R140Q of 336 ± 16.4 nM.

For `Fc1cccc(Cl)c1/C=N/Nc1nc(N/N=C/c2c(F)cccc2Cl)nc(N2CCOCC2)n1` [compound 6l, 2,4-Bis[(E)-2-[(2-Chloro-6-fluorophenyl)methylidene]hydrazin-1-yl]-6-(morpholin-4-yl)-1,3,5-triazine], the inhibition at 10 µM in the experiment with HL-60(TB) came out at 26.1%; in the experiment on HCT-15, 22.1%; with RXF 393, 17.8%; in the experiment on RPMI-8226 it was 41.1%; in the experiment on SF-295, 49.5%. For the same molecule, the 50% inhibitory concentration (IC50) on wild type IDH2 is 3440 ± 130 nM; against IDH2^R140Q it was 158 ± 7.72 nM. In experiment [1], the “Mean GI %” value was 19.00%.

For `Oc1ccccc1/C=N/Nc1nc(N/N=C/c2ccccc2O)nc(N2CCCCC2)n1` [compound 7a, 2-[(1e)-(2-{4-[(E)-2-[(2-Hydroxyphenyl)methylidene]hydrazin-1-yl]-6-(piperidin-1-yl)-1,3,5-triazin-2-yl}hydrazin-1-ylidene)methyl] phenol], the inhibition at 10 µM stood at 52.6% in the experiment with HL-60(TB); 22.6% in the experiment on HCT-15; 17% in the experiment on RXF 393; 57.4% with RPMI-8226; 47.4% with SF-295. In addition, the IC50 amounted to 5420 ± 210 nM against wild type IDH2 and 130 ± 6.35 nM against IDH2^R140Q. The “Mean GI %” value in experiment [1] amounted to 45.09%.

With `Brc1cccc(/C=N/Nc2nc(N/N=C/c3cccc(Br)c3)nc(N3CCCCC3)n2)c1` [compound 7c, 2,4-Bis[(E)-2-[(3-Bromophenyl)methylidene]hydrazin-1-yl]-6-(piperidin-1-yl)-1,3,5-triazine], the inhibition at 10 µM in the experiment with HL-60(TB) is 7.75%; in the experiment with HCT-15, 16.1%; in the experiment with RXF 393 it was -16.1%; with RPMI-8226 it was 11.8%; in the experiment on SF-295 it was 2.91%. Also, the values for the concentration for half-maximal inhibition (IC50) against wild type IDH2 and against IDH2^R140Q were 3130 ± 120 nM and 88.9 ± 4.34 nM, respectively. Moreover, the “Mean GI %” value in experiment [1] was 2.56%.

Regarding `Clc1cccc(/C=N/Nc2nc(N/N=C/c3cccc(Cl)c3)nc(N3CCCCC3)n2)c1` [compound 7d, 2,4-Bis[(E)-2-[(3-Chlorophenyl)methylidene]hydrazin-1-yl]-6-(piperidin-1-yl)-1,3,5-triazine], the inhibition at 10 µM stood at 3.01% in the experiment on HL-60(TB); 20.2% in the experiment with HCT-15; 6.56% with RXF 393; 27.6% in the experiment with RPMI-8226; 7.02% in the experiment on SF-295. The “Mean GI %” value in experiment [1] stood at 7.03%. On IDH2^R140Q, this molecule returned an IC50 of 370 ± 18 nM.

With `CN(C)c1ccc(/C=N/Nc2nc(N/N=C/c3ccc(N(C)C)cc3)nc(N3CCCCC3)n2)cc1` [compound 7g, 4-[(1e)-(2-{4-[(E)-2-{[4-(dimethylamino)phenyl]methylidene}chydrazin-1-yl]-6-(piperidin-1-yl)-1,3,5-triazin-2-yl}hydrazin-1-ylidene)methyl]-N,N-dimethylaniline], the inhibition at 10 µM was 138% with HL-60(TB); 99.9% in the experiment with HCT-15; 6.71% in the experiment with RXF 393; 67.4% with RPMI-8226; -6.74% with SF-295. Further, the GI50 came to 2200 nM with HL-60(TB); 1870 nM in the experiment on HCT-15; 2120 nM in the experiment with RXF 393; 1920 nM in the experiment with RPMI-8226; 1960 nM with SF-295. For the same molecule, in experiment [1], the “Mean GI %” value came out at 35.10%. In addition, at IDH2^R140Q, half-maximal inhibition (IC50) was put at 505 ± 24.7 nM.

For `O=C1Nc2ccc(Cl)cc2/C1=N\Nc1nc(N/N=C2/C(=O)Nc3ccc(Cl)cc32)nc(N2CCOCC2)n1` [compound 8b, (3E)-5-Chloro-3-[2–(4-{2-[(3E)-5-chloro-2-oxo-2,3-dihydro-1H-indol-3-ylidene]hydrazin-1-yl}6-(morpholin-4-yl)-1,3,5-triazin-2-yl)hydrazin-1-ylidene]-2,3-dihydro-1H-indol-2-one], the inhibition at 10 µM in the experiment on HL-60(TB) was determined as 27.8%; in the experiment on HCT-15, 8.4%; in the experiment on RXF 393 it was 86.3%; with RPMI-8226 it was 63.6%; in the experiment on SF-295, 54.4%. Besides, the “Mean GI %” value in experiment [1] came out at 47.89%.
